{"source": "BigSolDB 2.1", "conditions": "in formic acid"}
{"smiles": "OC1OC[C@@H](O)[C@H](O)[C@H]1O", "note": "(some centres undefined)", "values": [{"measurement": "solubility (mole fraction)", "setting": "300.45 K", "value": 0.13}, {"measurement": "solubility (mole fraction)", "setting": "301.85 K", "value": 0.139}, {"measurement": "solubility (mole fraction)", "setting": "303.25 K", "value": 0.146}, {"measurement": "solubility (mole fraction)", "setting": "305.15 K", "value": 0.154}, {"measurement": "solubility (mole fraction)", "setting": "306.75 K", "value": 0.161}, {"measurement": "solubility (mole fraction)", "setting": "308.15 K", "value": 0.168}, {"measurement": "solubility (mole fraction)", "setting": "309.95 K", "value": 0.175}, {"measurement": "solubility (mole fraction)", "setting": "311.65 K", "value": 0.182}, {"measurement": "solubility (mole fraction)", "setting": "313.45 K", "value": 0.191}, {"measurement": "solubility (mole fraction)", "setting": "315.75 K", "value": 0.2}, {"measurement": "solubility (mole fraction)", "setting": "317.45 K", "value": 0.208}, {"measurement": "solubility (mole fraction)", "setting": "320.35 K", "value": 0.223}, {"measurement": "solubility (mole fraction)", "setting": "323.15 K", "value": 0.237}, {"measurement": "solubility (mole fraction)", "setting": "324.85 K", "value": 0.244}]}
